Drawing on US8975265B2, “Substituted imidazo[1,2-a]pyrimidines and —pyridines” (Bayer Intellectual Property GmbH, priority 2010, dated 2015), this text covers IC50 and response vs control in vivo for 17 compounds.

Structures are written as SMILES. Like-named read-outs stand apart in the source and are kept apart here.

For experiment [1], the system named is p-AKT1/2/3-S473 in KPL4 breast tumour cell line. As to the kind of experiment: Cellular p-AKT1/2/3-S473 assay. It counts as cell-based. Particulars: KPL4 breast tumour cell line, 2 hours treatment; read-out: pAKT-S743 median IC50. In short, it runs like this: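 KPL4 cells (PIK3CA H1047R, HER2 0/E, hormone independent) were seeded at 60–80% confluency, cultured overnight, then exposed to compound for 2 h at 37 °C. pAKT-S473 and total AKT measured together by MSD Akt Duplex on 20 µg extract; pAKT expressed as % of total AKT, at least duplicate with independent repeats.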

Experiment [2] relates to KPL-4 breast cancer cell line. As to the kind of experiment: Tumor cell proliferation assay (CellTiter-Glo, 72 h), KPL-4. The format is cell-based. To be noted: KPL4, 72h drug exposure. The method, boiled down:
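KPL-4 cells were treated with compound for 72 h at 37°C. Viability was measured as ATP by CellTiter-Glo luminescence, with a separate t=0 plate read after overnight attachment. A reference compound was run as standard.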
A general note: ATP-based viability assays read luminescence as a measure of living cells.

Experiment [3] concerns p-AKT S473 in PC3 human prostate tumours. Description: In vivo xenograft mechanism of action study. Further details: species or system athymic nude mice. Particulars: Mus musculus, po, PC3 tumours in nude mice, once 50 mg/kg p.o. The text has this: In Vivo Xenograft Mechanism of Action Study
To this extent PC3 human prostate tumours were xenografted onto athymic nude mice. PC3 tumour cells were cultivated according to ATCC protocols in recommended media contained 10% FCS and harvested for transplantation in a subconfluent (70%) state. 3×10^6 tumour cells suspended in 50% Matrigel were subcutaneously implantated into the inguinal region of male mice. Tumours were allowed to grow to the predetermined size of 60-80 mm^2. When the tumours were approximately in size, the animals were randomized to treatment and control groups (groups size: 9 animals) and treatment was started. Animals were treated once with 50 mg/kg compound or vehicle per oral administration (p.o.) carried out via a gastric tube. Treatment of each animal was based on individual body weight. At 2, 5 and 24 hours post treatment 3 animals each were sacrificed and the PC3 tumours excised. Tumour samples of approximately 5×5×5 mm were lysed on ice in MSD lysis buffer in the presence of protease and phosphatase inhibitors using Tissue Lyzer (Qiagen, Germany). The levels of p-AKT S473 in extracts from tumour tissue were analysed in an ELISA based assay. This assay is based on the “Akt Duplex” of the MULTI-SPOT® Assay System (Fa. Meso Scale Discovery, Cat# N41100B-1) following manufacturers instructions. Each assay used 20 μg of protein extract and measured total AKT and p-AKT content simultaneously in one well. All measurements where at least done in duplicates and confirmed by independent repetition.
Values for P-AKT are expressed as percentage of P-AKT level compared to total-AKT content of the extracts. Vehicle treated tumours were analyzed to determine the basal level of P-AKT in this model and used as a normalization control to determine the % P-AKT relative to vehicle levels.

The target of experiment [4] is His-tagged human recombinant kinase full-length Akt1 (Homo sapiens (Human), UniProt P31749). As to the kind of experiment: Akt1 kinase assay (TR-FRET). It counts as biochemical. To be noted: 10 μM ATP; read-out: Akt1, median IC50. The method, boiled down: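 Full-length His-tagged Akt1 (about 0.05 ng/μl final) preincubated 15 min at 22 °C with compound in 50 mM TRIS/HCl pH 7.5, 5 mM MgCl2, 1 mM DTT, 0.02% Triton X-100; biotinylated peptide substrate. Phosphopeptide detected by TR-FRET (Eu-chelate antibody to streptavidin-XL665) after 1 h at 22 °C.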
For orientation: Time-resolved FRET reads energy transfer from a long-lived donor to a nearby acceptor.

In another experiment the test system is MCF7. As to the kind of experiment: Tumor cell proliferation assay (CellTiter-Glo, 72 h), MCF7. It counts as cell-based. To be noted: Homo sapiens, 72h drug exposure. As for the experimental part:
Compounds were tested in a cell-based assay that measures the capacity of the compounds to inhibit tumour cell proliferation following a 72h drug exposure. Cell viability is determined using CellTiter-Glow® (CTG, Promega, cat# G7571/2/3). The CellTiter-Glo® Luminescent Cell Viability Assay is a homogeneous method to determine the number of viable cells in culture. Detection is based on using the luciferase reaction to measure the amount of ATP from viable cells. The amount of ATP in cells correlates with cell viability. Within minutes after a loss of membrane integrity, cells lose the ability to synthesize ATP, and endogenous ATPases destroy any remaining ATP; thus the levels of ATP fall precipitously.
Cells were plated at 3000-5000 cells/well (depending on the cell lines) in 90 μL growth medium on MTPs (Corning; #3603, black plate, clear flat bottom). For each cell line assayed, cells were plated onto a separate plate for determination of […] at t=0 hour and t=72 hour time points. Following overnight incubation at 37° C., chemiluminescence values for the t=0 samples were determined after adding 10 μl medium and 100 μl CTG solution according to manufacture protocol. Plates for the t=72 hour time points were treated with compounds diluted into growth medium at ten times final concentration added in 10 μL to the cell culture plate. Cells were then incubated for 72 hours at 37° C. Chemiluminescence values for the t=72 hour samples were determined. […] Experiments were controlled using a reference compound as standard.

Experiment [5] has as its system p-4E-BP1-T70 in KPL4 breast tumour cell line. As to the kind of experiment: Cellular p-4E-BP1-T70 assay. The format is cell-based. Particulars: 2 hours treatment, read-out: P4EBP1-T70 median IC50. As for the experimental part:
The molecular mechanism of action was investigated in a set of experiments to assess the inhibition of the PI3K-AKT-mTOR pathway in responsive cell lines such as KPL4 breast tumour cell line (PIK3CAH1047R, HER20/E and hormone independent). The phospho-substrates of PI3K-AKT-mTOR axis were used as the read-outs to reflect pathway inhibition. Cells were seeded at 60-80% confluency per well in 96-well cell culture plates. After overnight incubation at 37° C. 5% CO2, cells were treated with compounds and vehicle at 37° C. for 2 hours. Thereafter, cells were lysed in 150 μl lysis buffer and the levels of phospho-AKT at T308 and S473 and p-4E-BP1 at T70 sites were determined with the corresponding AlphaScreen® SureFire® assay kits (Perkin Elmer: 4E-BP1 Assay Kit Cat # TRG4E2S10K; Akt 1/2/3 p-Ser 473 #TGRA4S500 and Akt 1/2/3 p-Thr 308 #TGRA3S500 as well as IgG detection Kit #6760617M) as described in the manuals. All measurements where at least done in duplicates and confirmed by independent repetition.

[6] abbreviates: 2 hours post treatment, read-out: P-AKT % relative to control at 2 hours.
[7] abbreviates: 5 hours post treatment, read-out: P-AKT % relative to control at 5 hours.

Sequence of His-tagged human recombinant kinase full-length Akt1 (P31749 whole entry): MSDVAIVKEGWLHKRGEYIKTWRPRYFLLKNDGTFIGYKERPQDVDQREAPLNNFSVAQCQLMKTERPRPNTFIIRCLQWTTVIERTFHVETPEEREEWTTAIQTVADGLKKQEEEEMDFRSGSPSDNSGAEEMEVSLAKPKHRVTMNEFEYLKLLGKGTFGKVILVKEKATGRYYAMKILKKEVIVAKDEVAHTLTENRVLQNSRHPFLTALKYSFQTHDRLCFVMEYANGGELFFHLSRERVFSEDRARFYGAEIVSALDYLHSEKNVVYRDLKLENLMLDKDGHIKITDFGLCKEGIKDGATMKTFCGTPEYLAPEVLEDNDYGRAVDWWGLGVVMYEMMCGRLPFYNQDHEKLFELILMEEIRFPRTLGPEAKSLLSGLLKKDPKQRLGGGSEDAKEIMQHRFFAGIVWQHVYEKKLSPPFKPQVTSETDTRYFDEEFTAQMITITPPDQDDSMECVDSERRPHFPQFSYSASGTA

In general, IC50 refers to the concentration that gives 50% inhibition. For the compound `NC1(c2ccc(-c3nc4ncc(-c5ccccc5)cn4c3-c3ccccc3)cc2)CCC1` [Example 1-9], the IC50 in experiment [1] was determined as 0.77 µM; in experiment [2] it was 2 µM. Besides, the response vs control in vivo at 50 mg/kg in experiment [3] (setting [6]) was found to be 32.2%; in experiment [3] (setting [7]) it was 21.1%.

As for `COc1ccn2c(-c3ccccc3)c(-c3ccc(C4(N)CCC4)cc3)nc2n1` [Example 2-00, 1-[4-(7-methoxy-3-phenyl-imidazo[1,2-a]pyrimidin-2-yl)-phenyl]-cyclobutylamine], the response vs control in vivo at 50 mg/kg was 4.7% in experiment [3] (setting [6]) and 6.3% in experiment [3] (setting [7]).

On to `NC(=O)c1ccc2nc(-c3ccc(C4(N)CCC4)cc3)c(-c3ccccc3)n2c1` [Example 2-18], for which the half-maximal inhibitory concentration (IC50) in experiment [1] was determined as 0.033 µM; in experiment [2] it was 0.5 µM. Besides, the response vs control in vivo at 50 mg/kg in experiment [3] (setting [6]) came out at 8%; in experiment [3] (setting [7]), 7.7%.

Turning to `NC(=O)c1ccn2c(-c3ccccc3)c(-c3ccc(C4(N)CCC4)cc3)nc2c1` [Example 2-41], the IC50 in experiment [1] came out at 0.033 µM; in experiment [2], 0.6 µM. Also, the response vs control in vivo at 50 mg/kg came out at 10.2% in experiment [3] (setting [6]) and 8.8% in experiment [3] (setting [7]).

In the case of `COc1cc(Br)cn2c(-c3ccccc3)c(-c3ccc(C4(N)CCC4)cc3)nc12` [Example 2-52], the IC50 in experiment [4] came to 0.019 µM; in experiment [1] it was 0.049 µM; in experiment [2] it was 1.5 µM; in the experiment on MCF7, 1.1 µM. Also, the response vs control in vivo at 50 mg/kg in experiment [3] (setting [6]) turned out to be 34.9%; in experiment [3] (setting [7]), 47.9%.

`Cc1cc(C)c2nc(-c3ccc(C4(N)CCC4)cc3)c(-c3ccccc3)n2c1` [Example 2-73]: the IC50 in experiment [1] was 0.235 µM; in experiment [5] it was 3.98 µM; in experiment [2], 1.8 µM; in the experiment on MCF7, 1.7 µM. The values for the response vs control in vivo at 50 mg/kg in experiment [3] (setting [6]) and in experiment [3] (setting [7]) were 9.1% and 9.3%, respectively.

`NC1(c2ccc(-c3nc4c(F)cc(F)cn4c3-c3ccccc3)cc2)CCC1` [Example 2-75]: the IC50 in experiment [4] was 0.052 µM; in experiment [1], 0.079 µM; in experiment [5], 1.6 µM; in experiment [2] it was 1.1 µM; in the experiment with MCF7 it was 0.6 µM. For the same compound, the response vs control in vivo at 50 mg/kg in experiment [3] (setting [6]) is 5.5%; in experiment [3] (setting [7]) it was 6.2%.

As for `Cc1c(Cl)cn2c(-c3ccccc3)c(-c3ccc(C4(N)CCC4)cc3)nc2c1Br` [Example 2-81], the IC50 in experiment [1] was determined as 1.1 µM; in experiment [5], 3.48 µM; in experiment [2], 1.8 µM; in the experiment with MCF7 it was 1.7 µM. The response vs control in vivo at 50 mg/kg in experiment [3] (setting [6]) amounted to 33.6%; in experiment [3] (setting [7]), 69.6%.

In the case of `Cc1cc(-c2cccnc2)c2nc(-c3ccc(C4(N)CCC4)cc3)c(-c3ccccc3)n2c1` [Example 2-90], the IC50 was determined as 0.337 µM in experiment [1], 1.56 µM in experiment [5], 1.9 µM in experiment [2] and 1.7 µM in the experiment on MCF7. Further, the response vs control in vivo at 50 mg/kg worked out at 51.6% in experiment [3] (setting [6]) and 53.7% in experiment [3] (setting [7]).

As to `Cc1cc(-c2ccn[nH]2)c2nc(-c3ccc(C4(N)CCC4)cc3)c(-c3ccccc3)n2c1` [Example 2-92], the IC50 came to 0.229 µM in experiment [4]; 1.4 µM in experiment [1]; 1.57 µM in experiment [5]; 4.3 µM in experiment [2]; 4.3 µM in the experiment on MCF7. Besides, the response vs control in vivo at 50 mg/kg in experiment [3] (setting [6]) was found to be 34.6%; in experiment [3] (setting [7]), 22%.

For `Cc1cc(-c2cn[nH]c2)c2nc(-c3ccc(C4(N)CCC4)cc3)c(-c3ccccc3)n2c1` [Example 2-93], the half-maximal inhibitory concentration (IC50) in experiment [1] worked out at 0.528 µM; in experiment [5], 1.42 µM; in experiment [2], 2 µM; with MCF7 it was 1.8 µM. The response vs control in vivo at 50 mg/kg in experiment [3] (setting [6]) was 46%; in experiment [3] (setting [7]), 79.2%.

On to `Cc1cc(C(N)=O)c2nc(-c3ccc(C4(N)CCC4)cc3)c(-c3ccccc3)n2c1` [Example 2-96], for which the IC50 in experiment [4] is 0.893 µM; in experiment [1], 1.61 µM; in experiment [5], 1.84 µM; in experiment [2] it was 10 µM; in the experiment on MCF7 it was 10 µM. In addition, the results for the response vs control in vivo at 50 mg/kg in experiment [3] (setting [6]) and in experiment [3] (setting [7]) were 12.2% and 11.4%, respectively.

As for `NC1(c2ccc(-c3nc4cc(-c5ncc[nH]5)ccn4c3-c3ccccc3)cc2)CCC1` [Example 2-114], the IC50 in experiment [4] came to 0.071 µM; in experiment [1], 0.025 µM; in experiment [2], 0.8 µM; in the experiment on MCF7 it was 0.7 µM. Further, the response vs control in vivo at 50 mg/kg stood at 47% in experiment [3] (setting [6]) and 57.2% in experiment [3] (setting [7]).

`NC1(c2ccc(-c3nc4ccc(Cl)cn4c3-c3ccccc3)cc2)CCC1` [Example 2-140]: the IC50 worked out at 0.115 µM in experiment [1], 2.66 µM in experiment [5], 1.9 µM in experiment [2] and 0.5 µM with MCF7. Besides, the response vs control in vivo at 50 mg/kg is 26% in experiment [3] (setting [6]) and 18% in experiment [3] (setting [7]).

As for `COc1cc(OC)c2nc(-c3ccc(C4(N)CCC4)cc3)c(-c3ccccc3)n2c1` [Example 2-146], the IC50 in experiment [1] amounted to 0.043 µM; in experiment [5], 0.636 µM; in experiment [2], 0.7 µM; in the experiment with MCF7 it was 0.6 µM. For the same compound, the response vs control in vivo at 50 mg/kg stood at 17.5% in experiment [3] (setting [6]) and 22.3% in experiment [3] (setting [7]).

Regarding `C=Cc1cc(OC)c2nc(-c3ccc(C4(N)CCC4)cc3)c(-c3ccccc3)n2c1` [Example 2-160], the IC50 in experiment [4] amounted to 0.191 µM; in experiment [1], 0.349 µM; in experiment [5], 1.38 µM; in experiment [2], 1.6 µM; with MCF7, 0.8 µM.

On to `Cc1cccc2nc(-c3ccc(C4(N)CCC4)cc3)c(-c3ccccc3)n12` [Example 14-0, 1-[4-(5-methyl-3-phenylimidazo[1,2-a]pyridin-2-yl)phenyl]cyclobutanamine], for which the IC50 was found to be 1.51 µM in experiment [4]; 1.12 µM in experiment [1]; 8.15 µM in experiment [5]; 3.1 µM in experiment [2]; 1.8 µM with MCF7.
